Experimental findings from EP3212201B1, “NUCLEOSIDE KINASE INHIBITORS” (BCI Pharma, priority 2014, dated 2016) are described below.

Common to all, as to assay: FRET-based coupled-enzyme protein kinase inhibition assay
Common to all, as to type: biochemical
Common to all, as to conditions: compound at 10 µM, 1% DMSO

One test addresses T1, AURKA (Aurora A) (Homo sapiens, UniProt O14965).
T1 sequence (O14965 1-403): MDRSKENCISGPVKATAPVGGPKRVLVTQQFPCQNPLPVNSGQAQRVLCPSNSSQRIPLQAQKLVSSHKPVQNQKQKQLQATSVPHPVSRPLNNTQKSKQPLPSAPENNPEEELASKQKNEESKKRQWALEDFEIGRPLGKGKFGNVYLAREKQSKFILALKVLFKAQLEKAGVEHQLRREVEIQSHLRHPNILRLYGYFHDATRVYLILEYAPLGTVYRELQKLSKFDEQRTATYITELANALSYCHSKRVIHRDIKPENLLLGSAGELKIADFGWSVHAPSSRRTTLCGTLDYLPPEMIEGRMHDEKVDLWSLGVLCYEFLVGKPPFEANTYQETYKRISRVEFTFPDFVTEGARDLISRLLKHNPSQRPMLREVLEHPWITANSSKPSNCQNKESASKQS
A digest of the protocol: (§1)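 Inhibition was quantified ratiometrically, as coumarin over fluorescein emission following 400 nm excitation, on a doubly labeled peptide whose cleavage by development reagent requires it to remain unphosphorylated. Kinase reactions ran 60 min at room temperature with ATP at apparent Km.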

In a further test the target is GSK3B (GSK3 beta) (Homo sapiens, UniProt P49841). In outline:
as §1

In the next test the target is INSR (Homo sapiens, UniProt P06213). In outline: as §1
For a further test, the target named is MAPK14 (p38 alpha) (Homo sapiens, UniProt Q16539). In outline: as §1
The target in another test is T2, NEK1 (Homo sapiens, UniProt Q96PY6).
T2 sequence (Q96PY6 1-1258): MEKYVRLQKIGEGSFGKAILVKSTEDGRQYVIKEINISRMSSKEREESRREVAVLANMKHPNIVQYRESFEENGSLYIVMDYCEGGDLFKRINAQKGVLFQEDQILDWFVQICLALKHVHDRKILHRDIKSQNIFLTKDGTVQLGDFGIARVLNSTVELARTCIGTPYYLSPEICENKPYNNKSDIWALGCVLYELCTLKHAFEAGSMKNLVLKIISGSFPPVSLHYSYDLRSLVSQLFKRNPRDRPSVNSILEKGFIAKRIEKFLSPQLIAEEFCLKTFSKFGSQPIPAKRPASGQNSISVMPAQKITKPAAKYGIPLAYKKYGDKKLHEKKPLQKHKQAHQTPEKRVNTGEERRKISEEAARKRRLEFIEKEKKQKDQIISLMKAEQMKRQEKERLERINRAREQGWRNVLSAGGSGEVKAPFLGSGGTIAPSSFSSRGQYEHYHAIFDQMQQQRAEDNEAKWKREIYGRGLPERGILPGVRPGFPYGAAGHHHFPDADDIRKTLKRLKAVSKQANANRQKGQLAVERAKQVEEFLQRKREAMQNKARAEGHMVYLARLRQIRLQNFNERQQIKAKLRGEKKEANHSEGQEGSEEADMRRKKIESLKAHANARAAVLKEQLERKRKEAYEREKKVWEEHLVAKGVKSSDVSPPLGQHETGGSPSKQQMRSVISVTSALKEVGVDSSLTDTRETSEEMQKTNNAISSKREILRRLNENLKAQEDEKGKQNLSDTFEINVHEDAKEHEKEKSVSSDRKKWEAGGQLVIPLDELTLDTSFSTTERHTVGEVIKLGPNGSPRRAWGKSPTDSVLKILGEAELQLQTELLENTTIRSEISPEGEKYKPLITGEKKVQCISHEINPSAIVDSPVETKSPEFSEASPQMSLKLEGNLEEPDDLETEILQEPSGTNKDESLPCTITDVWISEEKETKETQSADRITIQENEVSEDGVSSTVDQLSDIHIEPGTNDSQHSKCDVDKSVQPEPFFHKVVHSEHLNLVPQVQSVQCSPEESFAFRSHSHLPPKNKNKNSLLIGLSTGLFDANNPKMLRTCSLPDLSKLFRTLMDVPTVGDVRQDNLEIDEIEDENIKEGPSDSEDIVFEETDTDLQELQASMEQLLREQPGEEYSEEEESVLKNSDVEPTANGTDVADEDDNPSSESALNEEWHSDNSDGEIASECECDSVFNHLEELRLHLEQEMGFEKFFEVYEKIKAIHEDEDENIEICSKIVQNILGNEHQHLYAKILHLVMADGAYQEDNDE
A digest of the protocol:
as §1

MAPK14 (p38 alpha), sequence (Q16539 whole entry, species assumed): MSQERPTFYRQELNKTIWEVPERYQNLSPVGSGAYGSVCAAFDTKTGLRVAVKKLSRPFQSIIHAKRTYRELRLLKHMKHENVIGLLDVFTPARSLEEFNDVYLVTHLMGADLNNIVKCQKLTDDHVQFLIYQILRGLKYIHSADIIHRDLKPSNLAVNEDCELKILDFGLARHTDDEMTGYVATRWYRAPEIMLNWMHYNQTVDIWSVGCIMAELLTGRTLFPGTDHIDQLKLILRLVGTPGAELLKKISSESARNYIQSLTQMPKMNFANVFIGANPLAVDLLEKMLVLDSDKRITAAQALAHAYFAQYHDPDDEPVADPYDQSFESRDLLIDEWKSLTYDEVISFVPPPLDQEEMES
GSK3B (GSK3 beta), sequence (P49841 whole entry, species assumed): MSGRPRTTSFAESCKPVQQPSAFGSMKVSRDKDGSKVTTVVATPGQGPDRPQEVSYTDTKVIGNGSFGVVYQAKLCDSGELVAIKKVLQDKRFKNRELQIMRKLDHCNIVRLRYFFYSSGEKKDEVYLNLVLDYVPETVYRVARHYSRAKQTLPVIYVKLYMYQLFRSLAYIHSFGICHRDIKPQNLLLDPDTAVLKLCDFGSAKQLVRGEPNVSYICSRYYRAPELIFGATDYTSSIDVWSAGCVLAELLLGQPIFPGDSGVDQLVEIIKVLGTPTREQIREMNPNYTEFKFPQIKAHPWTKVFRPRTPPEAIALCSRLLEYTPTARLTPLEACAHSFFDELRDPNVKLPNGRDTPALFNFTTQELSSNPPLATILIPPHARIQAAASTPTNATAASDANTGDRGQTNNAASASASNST
INSR, sequence (P06213 28-1382, species assumed): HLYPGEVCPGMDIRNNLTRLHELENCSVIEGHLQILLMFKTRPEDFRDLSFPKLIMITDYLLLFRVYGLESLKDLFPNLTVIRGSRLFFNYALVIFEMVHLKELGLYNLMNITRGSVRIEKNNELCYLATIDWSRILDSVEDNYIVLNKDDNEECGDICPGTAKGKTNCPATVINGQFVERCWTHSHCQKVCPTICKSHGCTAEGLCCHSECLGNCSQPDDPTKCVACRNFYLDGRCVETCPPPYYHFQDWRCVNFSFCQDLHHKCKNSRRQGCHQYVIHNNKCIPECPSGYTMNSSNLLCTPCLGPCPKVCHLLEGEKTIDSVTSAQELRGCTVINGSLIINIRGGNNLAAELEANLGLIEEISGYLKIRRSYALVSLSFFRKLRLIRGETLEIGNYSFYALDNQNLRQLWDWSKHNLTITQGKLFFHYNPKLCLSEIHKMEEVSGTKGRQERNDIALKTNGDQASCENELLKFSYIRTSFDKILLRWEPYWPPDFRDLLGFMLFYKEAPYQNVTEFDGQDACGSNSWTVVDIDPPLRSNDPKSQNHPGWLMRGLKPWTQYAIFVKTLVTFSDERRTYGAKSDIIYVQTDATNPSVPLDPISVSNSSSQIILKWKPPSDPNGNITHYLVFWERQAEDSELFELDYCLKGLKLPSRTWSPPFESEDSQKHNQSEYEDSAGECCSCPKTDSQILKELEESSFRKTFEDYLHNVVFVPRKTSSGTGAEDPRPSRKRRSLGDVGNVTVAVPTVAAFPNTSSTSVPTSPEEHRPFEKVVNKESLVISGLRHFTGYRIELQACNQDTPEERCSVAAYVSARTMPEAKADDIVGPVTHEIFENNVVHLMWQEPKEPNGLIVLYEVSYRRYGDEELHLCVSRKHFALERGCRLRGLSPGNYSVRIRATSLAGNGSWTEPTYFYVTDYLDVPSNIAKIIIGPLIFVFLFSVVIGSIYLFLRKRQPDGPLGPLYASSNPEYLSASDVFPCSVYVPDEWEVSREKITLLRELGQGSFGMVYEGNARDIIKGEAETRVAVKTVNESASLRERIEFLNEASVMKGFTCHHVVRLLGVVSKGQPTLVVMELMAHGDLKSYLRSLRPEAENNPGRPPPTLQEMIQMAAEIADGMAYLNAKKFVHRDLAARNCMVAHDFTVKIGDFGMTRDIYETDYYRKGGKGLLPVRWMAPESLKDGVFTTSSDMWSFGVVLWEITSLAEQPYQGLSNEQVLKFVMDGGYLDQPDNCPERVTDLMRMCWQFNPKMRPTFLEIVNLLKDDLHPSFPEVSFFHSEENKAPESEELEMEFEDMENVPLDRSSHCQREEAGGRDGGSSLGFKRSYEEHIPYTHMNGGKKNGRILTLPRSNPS

Turning to `Nc1ncnc2c1ncn2[C@@H]1O[C@H](COC(=O)NCCCc2nc3ccccc3[nH]2)[C@@H](O)[C@H]1O` [Compound C1], the inhibition at 10 µM against AURKA (Aurora A) was 9%; on GSK3B (GSK3 beta) it was 7%; at INSR, 0%; against MAPK14 (p38 alpha) it was -3%; against NEK1, -4%.
In the case of `C[C@@H](NC(=O)OC[C@H]1O[C@@H](n2cnc3c(N)ncnc32)[C@H](O)[C@@H]1O)c1ccc(Cl)cc1` [Compound C4], the inhibition at 10 µM against AURKA (Aurora A) is 8%; against GSK3B (GSK3 beta) it was 8%; against INSR it was 5%; against MAPK14 (p38 alpha), -1%; against NEK1, 4%.
`Nc1ncnc2c1ncn2[C@@H]1O[C@H](COC(=O)NC[C@H](O)CO)[C@@H](O)[C@H]1O` [Compound C8]: the inhibition at 10 µM on AURKA (Aurora A) was -7%; at GSK3B (GSK3 beta) it was 21%; at INSR, 2%; against MAPK14 (p38 alpha), -3%; against NEK1, -5%.
In the same order, the values of `Nc1ncnc2c1ncn2[C@@H]1O[C@H](COC(=O)N2CCC[C@H]2CO)[C@@H](O)[C@H]1O` [Compound C9] are -5%, -6%, 4%, -4% and -3%.
In the same order, the values of `Nc1ncnc2c1ncn2[C@@H]1O[C@H](COC(=O)N[C@@H]2CCN(Cc3ccccc3)C2)[C@@H](O)[C@H]1O` [Compound C10] are -1%, 8%, 3%, 6% and 11%.
On to `Nc1ncnc2c1ncn2[C@@H]1O[C@H](COC(=O)N2CCN(Cc3ccccc3)CC2CO)[C@@H](O)[C@H]1O` (some centres unmarked) [Compound C13], for which the inhibition at 10 µM is -1% on AURKA (Aurora A); 4% against GSK3B (GSK3 beta); -3% against INSR; 0% against MAPK14 (p38 alpha); 4% on NEK1.
Take `CC(C)N1CCC(NC(=O)OC[C@H]2O[C@@H](n3cnc4c(N)ncnc43)[C@H](O)[C@@H]2O)CC1` [Compound C19]: the inhibition at 10 µM at AURKA (Aurora A) is 6%; on GSK3B (GSK3 beta), 6%; against INSR, 0%; on MAPK14 (p38 alpha), -1%; on NEK1 it was -2%.
Turning to `Nc1ncnc2c1ncn2[C@@H]1O[C@H](COC(=O)NCCN2CCCC2=O)[C@@H](O)[C@H]1O` [Compound C22], the inhibition at 10 µM against AURKA (Aurora A) is 5%; against GSK3B (GSK3 beta), 3%; at INSR, -5%; at MAPK14 (p38 alpha), -1%; on NEK1, -2%.
For `Nc1ncnc2c1ncn2[C@@H]1O[C@H](COC(=O)N2CCN(CCc3ccccc3)CC2)[C@@H](O)[C@H]1O` [Compound C26] the same measures were 1%, 6%, 2%, -6% and -7%.
As to `CN1CCN(CCNC(=O)OC[C@H]2O[C@@H](n3cnc4c(N)ncnc43)[C@H](O)[C@@H]2O)CC1` [Compound C46], the inhibition at 10 µM on AURKA (Aurora A) stood at 3%; against GSK3B (GSK3 beta), 5%; against INSR, 0%; at MAPK14 (p38 alpha) it was 5%; at NEK1, 7%.
For the compound `Nc1ncnc2c1ncn2[C@@H]1O[C@H](COC(=O)N2CCC(Cc3ccc(F)cc3)C2)[C@@H](O)[C@H]1O` (some centres unmarked) [Compound C66], the inhibition at 10 µM is 4% against AURKA (Aurora A); 1% on GSK3B (GSK3 beta); -5% against INSR; 18% against MAPK14 (p38 alpha); -5% at NEK1.
Take `N#CCCN1CCN(C(=O)OC[C@H]2O[C@@H](n3cnc4c(N)ncnc43)[C@H](O)[C@@H]2O)CC1` [Compound C70]: the inhibition at 10 µM is -1% against AURKA (Aurora A); 0% against GSK3B (GSK3 beta); -2% at INSR; 4% at MAPK14 (p38 alpha); 6% at NEK1.
Consider `CN(C)CCNC(=O)OC[C@H]1O[C@@H](n2cnc3c(N)ncnc32)[C@H](O)[C@@H]1O` [Compound C85], for which the inhibition at 10 µM was -11% at AURKA (Aurora A); -5% at GSK3B (GSK3 beta); 3% against INSR; 0% on MAPK14 (p38 alpha); 1% against NEK1.
For the compound `Nc1ncnc2c1ncn2[C@@H]1O[C@H](COC(=O)N2CCN(C(=O)N3CCOCC3)CC2)[C@@H](O)[C@H]1O` [Compound C89], the inhibition at 10 µM on AURKA (Aurora A) was -7%; at GSK3B (GSK3 beta) it was -2%; against INSR, 0%; at MAPK14 (p38 alpha), -2%; at NEK1, -7%.
As for `CS(=O)(=O)N1CC2(CCN(C(=O)OC[C@H]3O[C@@H](n4cnc5c(N)ncnc54)[C@H](O)[C@@H]3O)CC2)c2ccccc21` [Compound C98], the inhibition at 10 µM is 0% against AURKA (Aurora A); -1% on GSK3B (GSK3 beta); -2% at INSR; 20% against MAPK14 (p38 alpha); 0% against NEK1.
For `Nc1ncnc2c1ncn2[C@@H]1O[C@H](COC(=O)N2CCS(=O)(=O)CC2)[C@@H](O)[C@H]1O` [Compound C100], the inhibition at 10 µM against AURKA (Aurora A) was -7%; against GSK3B (GSK3 beta), 5%; on INSR it was -2%; against MAPK14 (p38 alpha) it was -4%; at NEK1 it was -3%.
